Here are results for two compounds from patent publication US3997506A (priority 1974, dated 1976).

In data set [1] the test system is leucocytes from rats. It is filed as in vivo, Sprague Dawley SIV 50 he-rats. To be noted: 2 mg/kg oral; for embodied radioactivity, mean / cpm / number of lymphocytes, mean: group mean; for cpm / number of lymphocytes, mean: factor and spread printed on following lines; for Number of lymphocytes/culture / embodied radioactivity / cpm / number of lymphocytes (immunity response): individual rat, 2 mg/kg; for cpm / number of lymphocytes (immunity response): factor × 10^-^2.
Method: Blood (about 0.2 ml) obtained through puncture of the retro-orbital veinous sinus was collected under sterile conditions prior to the administration of the substances and 6 hours later.
Then one proceeded with carrying out a micro-culture of the leucocytes in the presence of phytohemagglutinin.

The nature of data set [2]: General toxicity statement (LD50 and toxicity relative to thiocolchicine and colchicine). To be noted: in vivo; of the weight of the body of animals.
In a further data set the test system is animals. The data set is described as above. To be noted: in vivo.
For the next data set, the system named is viruses. The data set is described as follows: Antiviral activity (statement). The conditions noted are these: general statement.
A further data set relates to human leucocytes. The conditions noted are these: 0.01 μg/ml to 10 μg/ml; up to 30 hours; no PHA.
For data set [3], the system named is leucocytes from rats. To be noted: individual rat, 2 mg/kg oral.
Method: These rats had been kept fasting from the evening before.
During this experimentation a counting of the leucocytes as well as a leucocytic distribution were made before administration and 6 hours after administration of the substances. Moreover as a cytoxicity index, a measurement of the viability of leucocytes obtained 6 hours after administration was carried out by means of the staining test with Trypan blue.
The subject of a further data set is phagocytosis. To be noted: literature, cited from earlier work.
The next data set has as its system mouse. To be noted: intraperitoneal, literature; cited from earlier work.
The next data set relates to man. The conditions noted are these: may sometimes be of 6 mg only, literature; cited from earlier work.
Another data set relates to rat. The conditions noted are these: intravenous, literature; cited from earlier work.
Another data set relates to cat. The conditions noted are these: intravenous, literature; cited from earlier work.
[4] abbreviates: 6 hours after administration, 2 mg/kg.

Values joined by “and” are separate entries in the source; they are usually repeats but may differ in a detail not shown here. Identical values can stand only once. Like-named read-outs stand apart in the source and are kept apart here.

Method for human leucocytes: The concentrations of colchicine and of the derivative were prepared through dilution of a concentrated solution in order to add a same volume of methanol to each culture.
The doses were the following:
C1 = 0.01 μg/ml of culture
C2 = 0.1 μg/ml of culture
C3 = 0.5 μg/ml of culture
C4 = 1.0 μg/ml of culture
C5 = 2.5 μg/ml of culture
C6 = 10.0 μg/ml of culture.
Samples of culture with or without addition of methanol served as references.

In the case of `COc1cc2c(c(OC)c1OC)-c1ccc(SC)c(=O)cc1C(NC(=O)C13CC4CC(CC(C4)C1)C3)CC2` (single isomer, unassigned) [Derivative, N-desacetyl-N-adamantoyl-thiocolchicine], in the data set with leucocytes from rats [1] (6 hours after administration), the “embodied radioactivity, mean” value is on record as 10,664±2,087 cpm; the “cpm / number of lymphocytes, mean” value is reported as 4.71 × 10^-^2 cpm/number of lymphoc; the Number of lymphocytes/culture is 172,500 lymphocytes/culture and 244,760 lymphocytes/culture and 261,900 lymphocytes/culture; the embodied radioactivity was 8,466 cpm and 8,690 cpm and 14,836 cpm. In the data set with leucocytes from rats [1] (6 hours after administration), the “cpm / number of lymphocytes (immunity response)” value is 4.91 × 10^-^2 cpm/number of lymphoc and 3.55 × 10^-^2 cpm/number of lymphoc and 5.66 × 10^-^2 cpm/number of lymphoc. In the data set with leucocytes from rats [1] (before administration), the “embodied radioactivity, mean” value is reported as 12,227±2,228 cpm; the Number of lymphocytes/culture was 132,480 lymphocytes/culture and 147,000 lymphocytes/culture and 271,460 lymphocytes/culture and 257,060 lymphocytes/culture; the embodied radioactivity was 7,384 cpm and 10,195 cpm and 7,709 cpm and 13,619 cpm. In [2], the LD50 is approximately 3000 mg/kg. In the data set with animals, the “high toxicity relative to colchicine” value was “about 3,000 times less than that of colchicine” and the “toxicity relative to thiocolchicine” value is 30 times less toxic than thiocolchicine. Further, in the data set on viruses, the “activity against viruses (in words)” value is recorded as “active against many viruses”. Besides, the “cytotoxicity (in words)” value in the data set with human leucocytes was “no cytotoxicity is detectable”. In the data set with leucocytes from rats [3] (6 hours after administration), this compound came in with a Basophils of 0 and an Eosinophils of 0. Also, the Lymphocytes with leucocytes from rats [3] (setting [4]) is 94 and 82 and 86. Moreover, in the data set with leucocytes from rats [3] (before administration), the Basophils stood at 0 and the Eosinophils is 0. Also, in the data set with leucocytes from rats [3] (before administration, 2 mg/kg), the Lymphocytes was 84 and 90 and 82; the Monocytes is 2 and 1; the “Neutrophils with segmented nucleus” value was 12 and 8.

For the compound `COc1cc2c(c(OC)c1OC)-c1ccc(OC)c(=O)cc1[C@@H](NC(C)=O)CC2` [Colchicine, colchicine, reference compound], in the data set on leucocytes from rats [1] (6 hours after administration), the “cpm / number of lymphocytes, mean” value is given as 2.72 × 10^-^2 cpm/number of lymphoc. In addition, the Number of lymphocytes/culture was 148,200 lymphocytes/culture and 108,240 lymphocytes/culture with leucocytes from rats [1] (6 hours after administration); 103,960 lymphocytes/culture and 163,400 lymphocytes/culture and 156,400 lymphocytes/culture with leucocytes from rats [1] (before administration). Besides, in the data set with leucocytes from rats [1] (6 hours after administration), the “cpm / number of lymphocytes (immunity response)” value was 5.03 × 10^-^2 cpm/number of lymphoc and 0.40 × 10^-^2 cpm/number of lymphoc. The “cytotoxicity (in words)” value in the data set with human leucocytes is given as “no cytotoxicity is detectable”. The Basophils with leucocytes from rats [3] (6 hours after administration) and in the data set with leucocytes from rats [3] (before administration) was 0 throughout. In the data set on leucocytes from rats [3] (6 hours after administration), this compound gave an Eosinophils of 0. Also, the Lymphocytes in the data set with leucocytes from rats [3] (setting [4]) is 92 and 81 and 84; with leucocytes from rats [3] (before administration, 2 mg/kg) it was 94 and 83 and 87. For the same compound, in the data set with leucocytes from rats [3] (setting [4]), the “Neutrophils with non-segmented nucleus” value was 1 and 3. Further, the “Neutrophils with segmented nucleus” value with leucocytes from rats [3] (setting [4]) was 6 and 16 and 17. In the data set with leucocytes from rats [3] (before administration), this compound came in with a Monocytes of 2. Besides, the entries for the “% phagocytosis” value with phagocytosis (0.004 μg of colchicine), in the data set on phagocytosis (0.04 μg of colchicine) and in the data set on phagocytosis (0.4 μg of colchicine) were 68.6 ± 3.7%, 54.2 ± 5.4% and 39.8 ± 1.2%, respectively. Besides, the results for the LD50 in the data set on mouse, in the data set on rat and in the data set with cat were 1 mg/kg, 1.7 mg/kg and 0.25 mg/kg, respectively. Besides, the lethal dose in the data set with man is recorded as 6 mg.

One may read the LD50 as the dose expected to kill half of the subjects tested.
